Values after ≈ are worked out from the molar mass of the structure shown.
How the values were obtained:
Format in all cases: functional
Candida dubliniensis [1] = assay: […] activity against 5FC- […] Candida dubliniensis isolate SA109T1 harboring plasmid pNIM1 carrying CdFCA1 gene by broth microdilution method in presence of 30 ug/ml DOX
Candida dubliniensis [2] = assay: […] activity against 5FC- resistant Candida dubliniensis isolate harboring plasmid p7276T3 carrying CdFCA1 gene by broth microdilution method in presence of 30 ug/ml DOX
Candida dubliniensis [3] = assay: […] activity against 5FC- resistant Candida dubliniensis isolate harboring plasmid p7276T2 carrying CdFCA1 gene by broth microdilution method in presence of 30 ug/ml DOX
Candida dubliniensis [4] = assay: […] activity against 5FC- resistant Candida dubliniensis isolate harboring plasmid p7276T1 carrying CdFCA1 gene by broth microdilution method in presence of 30 ug/ml DOX
Candida dubliniensis [5] = assay: […] activity against Candida dubliniensis harboring plasmid p7276 by broth microdilution method in presence of 30 ug/ml DOX
Candida dubliniensis [6] = assay: […] activity against Candida dubliniensis isolate SA109 by broth microdilution method in presence of 30 ug/ml DOX
Candida dubliniensis [7] = assay: […] activity against Candida dubliniensis isolate SA113 by broth microdilution method in presence of 30 ug/ml DOX
Candida dubliniensis [8] = assay: […] activity against Candida dubliniensis isolate harboring plasmid p7276 carrying GFP1T1 gene by broth microdilution method in presence of 25 ug/ml DOX
Candida dubliniensis [9] = assay: […] activity against 5FC- […] Candida dubliniensis isolate SA113T1 harboring plasmid pNIM1 carrying CdFCA1 gene by broth microdilution method in presence of 25 ug/ml DOX
Candida dubliniensis [10] = assay: […] activity against 5FC- […] Candida dubliniensis isolate SA109T2 harboring plasmid pNIM1 carrying CdFCA1 gene by broth microdilution method in presence of 25 ug/ml DOX
Candida dubliniensis [11] = assay: […] activity against 5FC- […] Candida dubliniensis isolate SA109T1 harboring plasmid pNIM1 carrying CdFCA1 gene by broth microdilution method in presence of 25 ug/ml DOX
Candida dubliniensis [12] = assay: […] activity against 5FC- resistant Candida dubliniensis isolate harboring plasmid p7276T3 carrying CdFCA1 gene by broth microdilution method in presence of 25 ug/ml DOX
Candida dubliniensis [13] = assay: […] activity against 5FC- resistant Candida dubliniensis isolate harboring plasmid p7276T2 carrying CdFCA1 gene by broth microdilution method in presence of 25 ug/ml DOX
Candida dubliniensis [14] = assay: […] activity against 5FC- resistant Candida dubliniensis isolate harboring plasmid p7276T1 carrying CdFCA1 gene by broth microdilution method in presence of 25 ug/ml DOX
Candida dubliniensis [15] = assay: […] activity against Candida dubliniensis harboring plasmid p7276 by broth microdilution method in presence of 25 ug/ml DOX
Candida dubliniensis [16] = assay: […] activity against Candida dubliniensis isolate SA109 by broth microdilution method in presence of 25 ug/ml DOX
Candida dubliniensis [17] = assay: […] activity against Candida dubliniensis isolate SA113 by broth microdilution method in presence of 25 ug/ml DOX
Candida dubliniensis [18] = assay: […] activity against Candida dubliniensis isolate harboring plasmid p7276 carrying GFP1T1 gene by broth microdilution method
Candida dubliniensis [19] = assay: […] activity against 5FC- susceptible Candida dubliniensis isolate SA113T1 harboring plasmid pNIM1 carrying CdFCA1 gene by broth microdilution method
Candida dubliniensis [20] = assay: […] activity against 5FC- […] Candida dubliniensis isolate SA109T2 harboring plasmid pNIM1 carrying CdFCA1 gene by broth microdilution method
Candida dubliniensis [21] = assay: […] activity against 5FC- […] Candida dubliniensis isolate SA109T1 harboring plasmid pNIM1 carrying CdFCA1 gene by broth microdilution method
Candida dubliniensis [22] = assay: […] activity against 5FC- resistant Candida dubliniensis isolate harboring plasmid p7276T3 carrying CdFCA1 gene by broth microdilution method
Candida dubliniensis [23] = assay: […] activity against 5FC- resistant Candida dubliniensis isolate harboring plasmid p7276T2 carrying CdFCA1 gene by broth microdilution method
Candida dubliniensis [24] = assay: […] activity against 5FC- resistant Candida dubliniensis isolate harboring plasmid p7276T1 carrying CdFCA1 gene by broth microdilution method
Candida dubliniensis [25] = assay: […] activity against Candida dubliniensis harboring plasmid p7276 by broth microdilution method
Candida dubliniensis [26] = assay: […] activity against Candida dubliniensis isolate SA109 by broth microdilution method
Candida dubliniensis [27] = assay: […] activity against Candida dubliniensis isolate SA113 by broth microdilution method
Candida dubliniensis [28] = assay: […] activity against Candida dubliniensis isolate SA121 of Cd25 fingerprint group 3 and ITS genotype 4 by CLSI M27-A2 method
Candida dubliniensis [29] = assay: […] activity against Candida dubliniensis isolate SA118 of Cd25 fingerprint group 3 and ITS genotype 3 by CLSI M27-A2 method
Candida dubliniensis [30] = assay: […] activity against Candida dubliniensis isolate SA113 of Cd25 fingerprint group 3 and ITS genotype 4 by CLSI M27-A2 method
Candida dubliniensis [31] = assay: […] activity against Candida dubliniensis isolate SA109 of Cd25 fingerprint group 3 and ITS genotype 3 by CLSI M27-A2 method
Candida dubliniensis [32] = assay: […] activity against Candida dubliniensis isolate SA108 of Cd25 fingerprint group 3 and ITS genotype 3 by CLSI M27-A2 method
Candida dubliniensis [33] = assay: […] activity against Candida dubliniensis isolate SA103 of Cd25 fingerprint group 3 and ITS genotype 3 by CLSI M27-A2 method
Candida dubliniensis [34] = assay: […] activity against Candida dubliniensis isolate SA107 of Cd25 fingerprint group 3 and ITS genotype 3 by CLSI M27-A2 method
Candida dubliniensis [35] = assay: […] activity against Candida dubliniensis isolate SA100 of Cd25 fingerprint group 3 and ITS genotype 3 by CLSI M27-A2 method
Candida dubliniensis [36] = assay: […] activity against Candida dubliniensis isolate Eg207 of Cd25 fingerprint group 3 and ITS genotype 4 by CLSI M27-A2 method
Candida dubliniensis [37] = assay: […] activity against Candida dubliniensis isolate Eg202 of Cd25 fingerprint group 3 and ITS genotype 4 by CLSI M27-A2 method
Candida dubliniensis [38] = assay: […] activity against Candida dubliniensis isolate Eg201 of Cd25 fingerprint group 3 and ITS genotype 4 by CLSI M27-A2 method
Candida dubliniensis [39] = assay: […] activity against Candida dubliniensis isolate Eg200 of Cd25 fingerprint group 3 and ITS genotype 4 by CLSI M27-A2 method
Candida dubliniensis [40] = assay: […] activity against Candida dubliniensis isolate p7718 of Cd25 fingerprint group 3 and ITS genotype 4 by CLSI M27-A2 method
Candida dubliniensis [41] = assay: […] activity against Candida dubliniensis isolate p6785 of Cd25 fingerprint group 2 and ITS genotype 3 by CLSI M27-A2 method
Candida dubliniensis [42] = assay: […] activity against Candida dubliniensis isolate p7276 of Cd25 fingerprint group 2 and ITS genotype 3 by CLSI M27-A2 method
Candida dubliniensis [43] = assay: […] activity against Candida dubliniensis isolate Eg206 of Cd25 fingerprint group 1 and ITS genotype 1 by CLSI M27-A2 method
Candida dubliniensis [44] = assay: […] activity against Candida dubliniensis isolate Eg203 of Cd25 fingerprint group 1 and ITS genotype 1 by CLSI M27-A2 method
Candida dubliniensis [45] = assay: […] activity against Candida dubliniensis isolate SA115 of Cd25 fingerprint group 1 and ITS genotype 1 by CLSI M27-A2 method
Candida dubliniensis [46] = assay: […] activity against Candida dubliniensis isolate SA105 of Cd25 fingerprint group 1 and ITS genotype 1 by CLSI M27-A2 method
Candida dubliniensis [47] = assay: […] activity against Candida dubliniensis isolate SA101 of Cd25 fingerprint group 1 and ITS genotype 1 by CLSI M27-A2 method
Candida dubliniensis [48] = assay: […] activity against Candida dubliniensis isolate CD36b of Cd25 fingerprint group 1 and ITS genotype 1 by CLSI M27-A2 method
Candida albicans [49] = assay: […] activity against Candida albicans harboring Gly28Asp substitution in the cytosine deaminase gene by EUCAST method
Candida albicans [50] = assay: […] activity against Candida albicans harboring Ser29Leu substitution in the cytosine deaminase gene by EUCAST method
Candida dubliniensis [51] = assay: […] activity against 5FC-resistant Candida dubliniensis by NCCLS M27-A2 broth microdilution method
Candida dubliniensis [52] = assay: […] activity against 5FC-susceptible Candida dubliniensis by NCCLS M27-A2 broth microdilution method
Candida albicans [53] = assay: […] activity against Candida albicans by EUCAST method
Candida dubliniensis [54] = assay: […] activity against 5FC- […] Candida dubliniensis isolate SA109T2 harboring plasmid pNIM1 carrying CdFCA1 gene by broth microdilution method in presence of 30 ug/ml DOX
Candida dubliniensis [55] = assay: […] activity against 5FC- susceptible Candida dubliniensis isolate SA113T1 harboring plasmid pNIM1 carrying CdFCA1 gene by broth microdilution method in presence of 30 ug/ml DOX
Candida dubliniensis [56] = assay: […] activity against Candida dubliniensis isolate harboring plasmid p7276 carrying GFP1T1 gene by broth microdilution method in presence of 30 ug/ml DOX

Nc1nc(=O)[nH]cc1F [FLUCYTOSINE]
MIC (Candida dubliniensis [1]): ≤ 0.25 µg/mL
MIC (Candida dubliniensis [2]): ≤ 0.25 µg/mL
MIC (Candida dubliniensis [3]): ≤ 0.25 µg/mL
MIC (Candida dubliniensis [4]): ≤ 0.25 µg/mL
MIC (Candida dubliniensis [5]): ≤ 0.25 µg/mL
MIC (Candida dubliniensis [6]): ≥ 128 µg/mL
MIC (Candida dubliniensis [7]): ≥ 128 µg/mL
MIC (Candida dubliniensis [8]): ≤ 0.25 µg/mL
MIC (Candida dubliniensis [9]): ≤ 0.25 µg/mL
MIC (Candida dubliniensis [10]): ≤ 0.25 µg/mL
MIC (Candida dubliniensis [11]): ≤ 0.25 µg/mL
MIC (Candida dubliniensis [12]): ≤ 0.25 µg/mL
MIC (Candida dubliniensis [13]): ≤ 0.25 µg/mL
MIC (Candida dubliniensis [14]): ≤ 0.25 µg/mL
MIC (Candida dubliniensis [15]): ≤ 0.25 µg/mL
MIC (Candida dubliniensis [16]): ≥ 128 µg/mL
MIC (Candida dubliniensis [17]): ≥ 128 µg/mL
MIC (Candida dubliniensis [18]): ≤ 0.25 µg/mL
MIC (Candida dubliniensis [19]): ≥ 128 µg/mL
MIC (Candida dubliniensis [20]): ≥ 128 µg/mL
MIC (Candida dubliniensis [21]): ≥ 128 µg/mL
MIC (Candida dubliniensis [22]): ≤ 0.25 µg/mL
MIC (Candida dubliniensis [23]): ≤ 0.25 µg/mL
MIC (Candida dubliniensis [24]): ≤ 0.25 µg/mL
MIC (Candida dubliniensis [25]): ≤ 0.25 µg/mL
MIC (Candida dubliniensis [26]): ≥ 128 µg/mL
MIC (Candida dubliniensis [27]): ≥ 128 µg/mL
MIC (Candida dubliniensis [28]): ≥ 128 µg/mL
MIC (Candida dubliniensis [29]): ≥ 128 µg/mL
MIC (Candida dubliniensis [30]): ≥ 128 µg/mL
MIC (Candida dubliniensis [31]): ≥ 128 µg/mL
MIC (Candida dubliniensis [32]): ≥ 128 µg/mL
MIC (Candida dubliniensis [33]): ≥ 128 µg/mL
MIC (Candida dubliniensis [34]): ≥ 128 µg/mL
MIC (Candida dubliniensis [35]): ≥ 128 µg/mL
MIC (Candida dubliniensis [36]): ≥ 128 µg/mL
MIC (Candida dubliniensis [37]): ≥ 128 µg/mL
MIC (Candida dubliniensis [38]): ≥ 128 µg/mL
MIC (Candida dubliniensis [39]): ≥ 128 µg/mL
MIC (Candida dubliniensis [40]): ≤ 0.25 µg/mL
MIC (Candida dubliniensis [41]): ≤ 0.25 µg/mL
MIC (Candida dubliniensis [42]): ≤ 0.25 µg/mL
MIC (Candida dubliniensis [43]): ≤ 0.25 µg/mL
MIC (Candida dubliniensis [44]): ≤ 0.25 µg/mL
MIC (Candida dubliniensis [45]): ≤ 0.25 µg/mL
MIC (Candida dubliniensis [46]): ≤ 0.25 µg/mL
MIC (Candida dubliniensis [47]): ≤ 0.25 µg/mL
MIC (Candida dubliniensis [48]): ≤ 0.25 µg/mL
MIC (Candida albicans [49]): > 64 µg/mL
MIC (Candida albicans [50]): 4 µg/mL (≈ 31 µM)
MIC (Candida dubliniensis [51]): ≥ 128 µg/mL
MIC (Candida dubliniensis [52]): ≤ 0.125 µg/mL
MIC (Candida albicans [53]): ≥ 0.06 µg/mL
MIC (Candida dubliniensis [54]): ≤ 0.25 µg/mL
MIC (Candida dubliniensis [55]): ≤ 0.25 µg/mL
MIC (Candida dubliniensis [56]): ≤ 0.25 µg/mL

O=c1[nH]cc(F)c(=O)[nH]1 [FLUOROURACIL]
MIC (Candida dubliniensis [28]): 32 µg/mL (≈ 246 µM)
MIC (Candida dubliniensis [29]): 32 µg/mL (≈ 246 µM)
MIC (Candida dubliniensis [30]): 32 µg/mL (≈ 246 µM)
MIC (Candida dubliniensis [31]): 8 µg/mL (≈ 61.5 µM)
MIC (Candida dubliniensis [32]): 32 µg/mL (≈ 246 µM)
MIC (Candida dubliniensis [33]): 32 µg/mL (≈ 246 µM)
MIC (Candida dubliniensis [34]): 32 µg/mL (≈ 246 µM)
MIC (Candida dubliniensis [35]): 32 µg/mL (≈ 246 µM)
MIC (Candida dubliniensis [36]): 32 µg/mL (≈ 246 µM)
MIC (Candida dubliniensis [37]): 32 µg/mL (≈ 246 µM)
MIC (Candida dubliniensis [38]): 32 µg/mL (≈ 246 µM)
MIC (Candida dubliniensis [39]): 8 µg/mL (≈ 61.5 µM)
MIC (Candida dubliniensis [40]): 16 µg/mL (≈ 123 µM)
MIC (Candida dubliniensis [41]): 16 µg/mL (≈ 123 µM)
MIC (Candida dubliniensis [42]): 8 µg/mL (≈ 61.5 µM)
MIC (Candida dubliniensis [43]): 32 µg/mL (≈ 246 µM)
MIC (Candida dubliniensis [44]): 16 µg/mL (≈ 123 µM)
MIC (Candida dubliniensis [45]): 32 µg/mL (≈ 246 µM)
MIC (Candida dubliniensis [46]): 32 µg/mL (≈ 246 µM)
MIC (Candida dubliniensis [47]): 16 µg/mL (≈ 123 µM)
MIC (Candida dubliniensis [48]): 32 µg/mL (≈ 246 µM)

From ChEMBL document CHEMBL1649254, “A Ser29Leu substitution in the cytosine deaminase Fca1p is responsible for clade-specific flucytosine resistance in Candida dubliniensis” (2009)
